Assay results taken from patent publication US20250230193A1, “CYCLIC COMPOUND HAVING SELECTIVE KRAS INHIBITORY EFFECT ON HRAS AND NRAS” (CHUGAI SEIYAKU KABUSHIKI KAISHA, priority 2022, published 2025).
*1 amine or outer side, *2 acyl side, *3 side chain or, on linkers, in order; H or OH if unused. Where a SMILES comes first, the peptide text is derived from it. Bridges are numbered along the chain shown (N, C = ends). [ ]: non-standard residue; d: D form. The star is where a group is joined. hPhe(3,5-F2-4-CF3) = N[C@@H](CCc1cc(F)c(C(F)(F)F)c(F)c1)C(=O)O; hPhe(3-Cl-4-CF3) = N[C@@H](CCc1ccc(C(F)(F)F)c(Cl)c1)C(=O)O; NPrPhe(4-CF3) = CCCN[C@@H](Cc1ccc(C(F)(F)F)cc1)C(=O)O; NMeGly(cPent) = CN[C@H](C(=O)O)C1CCCC1; X13 = CCC[C@](C)(N[*:1])C(=O)[*:2]; αMeCha = C[C@](N)(CC1CCCCC1)C(=O)O; αMeI = CC[C@H](C)[C@](C)(N)C(=O)O; X15 = O=C(CN(CC(F)F)[*:1])[*:2]; NMeD = CN[C@@H](CC(=O)O)C(=O)O; NMeL = CN[C@@H](CC(C)C)C(=O)O; αMeL = CC(C)C[C@](C)(N)C(=O)O; X51 = O=C(CN(CCF)[*:1])[*:2]; αMeV = CC(C)[C@](C)(N)C(=O)O; αMeS = C[C@](N)(CO)C(=O)O; Iva = CC[C@](C)(N)C(=O)O; Morpholide = C1CN(*)CCO1; Ac5c = NC1(C(=O)O)CCCC1; Sar = CNCC(=O)O; tBu = CC(C)(C)*; Allyl = C=CC*

How the values were obtained:
[1] = molecular target: GDP-bound NRAS wild-type protein (Homo sapiens, UniProt P01111); test: Binding to NRAS by surface plasmon resonance (SPR), Single Cycle Kinetics; conditions: KD ratio NRAS/KRAS, SPR
Chain of GDP-bound NRAS wild-type protein (P01111 whole entry): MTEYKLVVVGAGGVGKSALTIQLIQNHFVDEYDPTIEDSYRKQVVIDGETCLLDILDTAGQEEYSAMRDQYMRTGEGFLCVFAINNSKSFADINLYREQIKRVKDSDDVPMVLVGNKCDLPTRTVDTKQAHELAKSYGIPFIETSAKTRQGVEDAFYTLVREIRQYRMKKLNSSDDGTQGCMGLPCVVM

[2] = molecular target: GDP-bound HRAS wild-type protein (Homo sapiens, UniProt P01112); test: Binding to HRAS by surface plasmon resonance (SPR), Single Cycle Kinetics; conditions: KD ratio HRAS/KRAS, SPR
Chain of GDP-bound HRAS wild-type protein (P01112 whole entry): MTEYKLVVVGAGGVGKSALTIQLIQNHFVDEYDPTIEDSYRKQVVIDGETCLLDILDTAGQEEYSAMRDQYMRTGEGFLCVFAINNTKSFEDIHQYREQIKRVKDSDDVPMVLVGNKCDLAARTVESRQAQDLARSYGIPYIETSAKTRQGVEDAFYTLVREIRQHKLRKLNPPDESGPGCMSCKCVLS

Structure (SMILES) | NRAS/KRAS (ratio of KD value with respect to GDP-bound NRAS wild-type protein to KD value with respect to KRAS) [1] | HRAS/KRAS (ratio of KD value with respect to GDP-bound HRAS wild-type protein to KD value with respect to KRAS) [2]
CCCN1C(=O)CN(C)C(=O)CN(CCF)C(=O)[C@H]([C@@H](C)CC)NC(=O)[C@H](CC(C)C)N(C)C(=O)C[C@@H](C(=O)N2CCOCC2)N(C)C(=O)[C@H](C2CCCC2)N(C)C(=O)C2(CCCC2)NC(=O)[C@@H]2CCCN2C(=O)[C@H](CCc2ccc(C(F)(F)F)c(Cl)c2)NC(=O)CN(C)C(=O)[C@@H]1Cc1ccc(C(F)(F)F)cc1 [PP0751] ([NMeL]I[X51][Sar][NPrPhe(4-CF3)][Sar][hPhe(3-Cl-4-CF3)]P[Ac5c][NMeGly(cPent)][NMeD]-Morpholide; lactam N-11) | B (a compound having 3 or more and less than 10 is denoted as B) | C (A compound having a KD ratio of 0.1 or more and less than 3 is denoted as C)
CCCN1C(=O)CN(C)C(=O)CN(CC(F)F)C(=O)[C@H]([C@@H](C)CC)NC(=O)[C@H](CC(C)C)N(C)C(=O)C[C@@H](C(=O)N2CCOCC2)N(C)C(=O)[C@H](C2CCCC2)N(C)C(=O)C2(CCCC2)NC(=O)[C@@H]2CCCN2C(=O)[C@H](CCc2ccc(C(F)(F)F)c(Cl)c2)NC(=O)CN(C)C(=O)[C@@H]1Cc1ccc(C(F)(F)F)cc1 [PP0752] ([NMeL]I[X15][Sar][NPrPhe(4-CF3)][Sar][hPhe(3-Cl-4-CF3)]P[Ac5c][NMeGly(cPent)][NMeD]-Morpholide; lactam N-11) | B (a compound having 3 or more and less than 10 is denoted as B) | B (a compound having 3 or more and less than 10 is denoted as B)
CCCN1C(=O)CN(C)C(=O)CN(C)C(=O)[C@H]([C@@H](C)CC)NC(=O)[C@H](CC(C)C)N(C)C(=O)C[C@@H](C(=O)N2CCOCC2)N(C)C(=O)[C@H](C2CCCC2)N(C)C(=O)C2(CCCC2)NC(=O)[C@@H]2CCCN2C(=O)[C@H](CCc2cc(F)c(C(F)(F)F)c(F)c2)NC(=O)CN(C)C(=O)[C@@H]1Cc1ccc(C(F)(F)F)cc1 [PP0753] ([NMeL]I[Sar][Sar][NPrPhe(4-CF3)][Sar][hPhe(3,5-F2-4-CF3)]P[Ac5c][NMeGly(cPent)][NMeD]-Morpholide; lactam N-11) | B (a compound having 3 or more and less than 10 is denoted as B) | C (A compound having a KD ratio of 0.1 or more and less than 3 is denoted as C)
CCCN1C(=O)CN(C)C(=O)CN(C)C(=O)[C@H]([C@@H](C)CC)NC(=O)[C@H](CC(C)C)N(C)C(=O)C[C@@H](C(=O)N2CCOCC2)N(C)C(=O)[C@H](C2CCCC2)N(C)C(=O)[C@](C)(CC)NC(=O)[C@@H]2CCCN2C(=O)[C@H](CCc2cc(F)c(C(F)(F)F)c(F)c2)NC(=O)CN(C)C(=O)[C@@H]1Cc1ccc(C(F)(F)F)cc1 [PP0754] ([NMeL]I[Sar][Sar][NPrPhe(4-CF3)][Sar][hPhe(3,5-F2-4-CF3)]P[Iva][NMeGly(cPent)][NMeD]-Morpholide; lactam N-11) | B (a compound having 3 or more and less than 10 is denoted as B) | C (A compound having a KD ratio of 0.1 or more and less than 3 is denoted as C)
CCCN1C(=O)CN(C)C(=O)CN(C)C(=O)[C@H]([C@@H](C)CC)NC(=O)[C@H](CC(C)C)N(C)C(=O)C[C@@H](C(=O)N2CCOCC2)N(C)C(=O)[C@H](C2CCCC2)N(C)C(=O)[C@](C)(C(C)C)NC(=O)[C@@H]2CCCN2C(=O)[C@H](CCc2cc(F)c(C(F)(F)F)c(F)c2)NC(=O)CN(C)C(=O)[C@@H]1Cc1ccc(C(F)(F)F)cc1 [PP0756] ([NMeL]I[Sar][Sar][NPrPhe(4-CF3)][Sar][hPhe(3,5-F2-4-CF3)]P[αMeV][NMeGly(cPent)][NMeD]-Morpholide; lactam N-11) | B (a compound having 3 or more and less than 10 is denoted as B) | B (a compound having 3 or more and less than 10 is denoted as B)
CCCN1C(=O)CN(C)C(=O)CN(C)C(=O)[C@H]([C@@H](C)CC)NC(=O)[C@H](CC(C)C)N(C)C(=O)C[C@@H](C(=O)N2CCOCC2)N(C)C(=O)[C@H](C2CCCC2)N(C)C(=O)[C@](C)([C@@H](C)CC)NC(=O)[C@@H]2CCCN2C(=O)[C@H](CCc2cc(F)c(C(F)(F)F)c(F)c2)NC(=O)CN(C)C(=O)[C@@H]1Cc1ccc(C(F)(F)F)cc1 [PP0757] ([NMeL]I[Sar][Sar][NPrPhe(4-CF3)][Sar][hPhe(3,5-F2-4-CF3)]P[αMeI][NMeGly(cPent)][NMeD]-Morpholide; lactam N-11) | B (a compound having 3 or more and less than 10 is denoted as B) | C (A compound having a KD ratio of 0.1 or more and less than 3 is denoted as C)
CCCN1C(=O)CN(C)C(=O)CN(C)C(=O)[C@H]([C@@H](C)CC)NC(=O)[C@H](CC(C)C)N(C)C(=O)C[C@@H](C(=O)N2CCOCC2)N(C)C(=O)[C@H](C2CCCC2)N(C)C(=O)[C@](C)(CCC)NC(=O)[C@@H]2CCCN2C(=O)[C@H](CCc2cc(F)c(C(F)(F)F)c(F)c2)NC(=O)CN(C)C(=O)[C@@H]1Cc1ccc(C(F)(F)F)cc1 [PP0758] ([NMeL]I[Sar][Sar][NPrPhe(4-CF3)][Sar][hPhe(3,5-F2-4-CF3)]P[X13][NMeGly(cPent)][NMeD]-Morpholide; lactam N-11) | B (a compound having 3 or more and less than 10 is denoted as B) | C (A compound having a KD ratio of 0.1 or more and less than 3 is denoted as C)
CCCN1C(=O)CN(C)C(=O)CN(C)C(=O)[C@H]([C@@H](C)CC)NC(=O)[C@H](CC(C)C)N(C)C(=O)C[C@@H](C(=O)N2CCOCC2)N(C)C(=O)[C@H](C2CCCC2)N(C)C(=O)[C@](C)(CC(C)C)NC(=O)[C@@H]2CCCN2C(=O)[C@H](CCc2cc(F)c(C(F)(F)F)c(F)c2)NC(=O)CN(C)C(=O)[C@@H]1Cc1ccc(C(F)(F)F)cc1 [PP0759] ([NMeL]I[Sar][Sar][NPrPhe(4-CF3)][Sar][hPhe(3,5-F2-4-CF3)]P[αMeL][NMeGly(cPent)][NMeD]-Morpholide; lactam N-11) | B (a compound having 3 or more and less than 10 is denoted as B) | B (a compound having 3 or more and less than 10 is denoted as B)
CCCN1C(=O)CN(C)C(=O)CN(C)C(=O)[C@H]([C@@H](C)CC)NC(=O)[C@H](CC(C)C)N(C)C(=O)C[C@@H](C(=O)N2CCOCC2)N(C)C(=O)[C@H](C2CCCC2)N(C)C(=O)[C@](C)(CC2CCCCC2)NC(=O)[C@@H]2CCCN2C(=O)[C@H](CCc2cc(F)c(C(F)(F)F)c(F)c2)NC(=O)CN(C)C(=O)[C@@H]1Cc1ccc(C(F)(F)F)cc1 [PP0760] ([NMeL]I[Sar][Sar][NPrPhe(4-CF3)][Sar][hPhe(3,5-F2-4-CF3)]P[αMeCha][NMeGly(cPent)][NMeD]-Morpholide; lactam N-11) | B (a compound having 3 or more and less than 10 is denoted as B) | C (A compound having a KD ratio of 0.1 or more and less than 3 is denoted as C)
CCCN1C(=O)CN(C)C(=O)CN(C)C(=O)[C@H]([C@@H](C)CC)NC(=O)[C@H](CC(C)C)N(C)C(=O)C[C@@H](C(=O)N2CCOCC2)N(C)C(=O)[C@H](C2CCCC2)N(C)C(=O)[C@](C)(COC)NC(=O)[C@@H]2CCCN2C(=O)[C@H](CCc2cc(F)c(C(F)(F)F)c(F)c2)NC(=O)CN(C)C(=O)[C@@H]1Cc1ccc(C(F)(F)F)cc1 [PP0762] ([NMeL]I[Sar][Sar][NPrPhe(4-CF3)][Sar][hPhe(3,5-F2-4-CF3)]P[αMeS](Me)[NMeGly(cPent)][NMeD]-Morpholide; lactam N-11) | B (a compound having 3 or more and less than 10 is denoted as B) | B (a compound having 3 or more and less than 10 is denoted as B)
C=CCOC[C@]1(C)NC(=O)[C@@H]2CCCN2C(=O)[C@H](CCc2cc(F)c(C(F)(F)F)c(F)c2)NC(=O)CN(C)C(=O)[C@H](Cc2ccc(C(F)(F)F)cc2)N(CCC)C(=O)CN(C)C(=O)CN(C)C(=O)[C@H]([C@@H](C)CC)NC(=O)[C@H](CC(C)C)N(C)C(=O)C[C@@H](C(=O)N2CCOCC2)N(C)C(=O)[C@H](C2CCCC2)N(C)C1=O [PP0763] ([NMeL]I[Sar][Sar][NPrPhe(4-CF3)][Sar][hPhe(3,5-F2-4-CF3)]P[αMeS](Allyl)[NMeGly(cPent)][NMeD]-Morpholide; lactam N-11) | B (a compound having 3 or more and less than 10 is denoted as B) | B (a compound having 3 or more and less than 10 is denoted as B)
CCCN1C(=O)CN(C)C(=O)CN(C)C(=O)[C@H]([C@@H](C)CC)NC(=O)[C@H](CC(C)C)N(C)C(=O)C[C@@H](C(=O)N2CCOCC2)N(C)C(=O)[C@H](C2CCCC2)N(C)C(=O)[C@](C)(COC(C)(C)C)NC(=O)[C@@H]2CCCN2C(=O)[C@H](CCc2cc(F)c(C(F)(F)F)c(F)c2)NC(=O)CN(C)C(=O)[C@@H]1Cc1ccc(C(F)(F)F)cc1 [PP0764] ([NMeL]I[Sar][Sar][NPrPhe(4-CF3)][Sar][hPhe(3,5-F2-4-CF3)]P[αMeS](tBu)[NMeGly(cPent)][NMeD]-Morpholide; lactam N-11) | B (a compound having 3 or more and less than 10 is denoted as B) | B (a compound having 3 or more and less than 10 is denoted as B)
